Measured values from a melting point compilation (Tetko et al.; mined from patent text by program, amines drawn as free bases though some values may be those of a salt).

| melting point | SMILES |
| --- | --- |
| 235 to 239 °C | O=C(Nc1ccc2[nH]c(=O)oc2c1)C(=O)N1CCC(Cc2ccc(O)cc2)CC1 |
| 165 to 169 °C | COC(=O)C=CN1c2ccccc2Sc2nccnc21 |
| 110 to 112 °C | CC1(C)COC(c2ccccc2C2Oc3cccc(F)c3C(=O)C2=Cc2ccccc2)=N1 (stereo not drawn) |
| 207 °C | Cc1nc2ccc(N3C[C@H](C(N)c4nccs4)OC3=O)cc2s1 (stereo partly drawn) |
| 149 to 150 °C | O=C1CCc2cc(Br)c3c(c21)CCO3 |
| 146 to 147 °C | NC(=O)Cc1ccc2[nH]ccc2c1 |
| 135 to 137 °C | CN(C(N)=O)[C@@H]1c2cc(C#N)ccc2OC(C)(C)[C@H]1O (relative stereo) |
| > 250 °C | CNCC1Cc2cc(-c3ccccc3)cc(-c3ccc(F)cc3)c2O1 (stereo not drawn) |
| 204 to 206 °C | COC(C)=C(C(=O)OC(c1ccccc1)c1ccccc1)N1C(=O)C(NC(=O)C(NC(=O)OC(C)(C)C)c2ccccc2)C1SS(=O)(=O)c1ccc(C)cc1 (stereo not drawn) |
| 70 to 73 °C | COC(=O)C=Cc1ccc(OC)c(C)c1 |
| 78 to 80 °C | CCCC(C)COc1cc(CCl)c(OC)cc1CCl (stereo not drawn) |
| 178 °C | CSc1c2n(c3ccccc13)CCC2N(O)C(N)=O (stereo not drawn) |
| 238 to 240 °C | NC(=O)c1ccc2ccn(C3CCN(CCc4ccc(F)cc4)CC3)c2c1 |
| 103 to 106 °C | CCCCc1nc(N)c(C(=O)OCC)[nH]1 |

The next lines start with the compound.

| SMILES | melting point |
| --- | --- |
| CN1CCN(CCCNc2nc(N)c(C(=O)c3ccc(Cl)s3)s2)CC1 | 184 °C |
| CC(C)(C)c1cc(-n2ccc(=O)[nH]c2=O)cc(-c2ccc3cc(NS(C)(=O)=O)ccc3c2)c1Cl | > 280 °C |
| CCNC(=O)n1nc(Oc2c(Cl)cc(C(F)(F)F)cc2Cl)c(Cl)c1C | 85 to 86 °C |
| Cc1ccc(Cn2c3c(c4cc(OCc5ccccc5)ccc42)C(=O)C(=O)OC3)cc1 | 206 to 207 °C |
| CC(=NO)C(C)(C)NN(C)CCNC(C)(C)C(Cn1ccnc1[N+](=O)[O-])=NO | 132 to 134 °C |
| COc1cc(-c2nc(N(C)CCN(C)C)c3c(C)c(C#N)sc3n2)cc(OC)c1OC | 125 to 127 °C |
| CC1=C(S(=O)(=O)c2ccc(C)cc2)C(c2ccc(C)cc2)C(C#N)=C(CC(C)C)N1 (stereo not drawn) | 135 to 137 °C |
| CON(Cc1ccc(F)c(C)c1)C(=O)C1=C(O)C(=O)N(C)C1 | 160 to 164 °C |
| O=C1C(=Cc2cccc(C(F)(F)F)c2)SC(=S)N1N=c1sc2ccccc2s1 | 268 to 269 °C |
| CC(C)c1cccc(C(C)C)c1NC(=O)Nc1nnn(Cc2ccccc2)n1 | 180 to 181 °C |
| Clc1ccc(-c2n[nH]c(-c3ccncc3)n2)cc1 | 264 to 266 °C |
| O=C1N(Cc2ccc(Cl)cc2)c2ccccc2C1(O)c1ccoc1 (stereo not drawn) | 128 to 130 °C |
| CC(C)Nc1cccnc1N1CCN(C(=O)c2ccc(C(=O)O)cn2)CC1 | 211 to 214 °C |
| CCCC(=O)NN=C(C)C1CCC=C(C)O1 (stereo not drawn) | 72.8 °C |
| CCOCCOc1c(C2CCN(CCCCNC(=O)c3ccc(-c4ccc(C(F)(F)F)cc4)cc3)CC2)ccc2c1CCCC2 | 190 °C |
| COc1ccccc1N1CCN(Cc2ccc(O)cc2)CC1 | 172 °C |
| CCOC(=O)C(C)OCc1cc2cc(Cl)ccc2n1S(=O)(=O)c1cc(OC)ccc1OC (stereo not drawn) | 118 to 120 °C |
| CN1C[C@]2(C)CC[C@](NCC(=O)N3C[C@@H](F)C[C@H]3C#N)(C1)C2(C)C | 122 to 126 °C |
| O=c1c2ccccc2nnn1CCN1CC=C(c2c[nH]c3ccccc23)CC1 | 230 °C |
| Oc1ccccc1-c1ccc(Cl)nn1 | 188 °C |
| Cc1c(NC(=O)c2ccc(-c3ccc(F)cc3)cc2)ccc2cc(CN3CCCCC3)cnc12 | 188 to 190 °C |
| Cn1cncc1C(O)(c1ccc(Cl)cc1)c1ccc2c(c1)c(-c1cccc(Cl)c1)cc(=O)n2C (stereo not drawn) | 234 °C |
| O=C(O)c1ccc(=O)n(CCCNC(=O)c2cccnc2)c1 | 218 to 220 °C |
| O=C1c2c(Cl)cccc2-n2cnc(-c3nc(CN4CCCC4)cs3)c2[C@@H]2CCCN12 | 213 to 214 °C |
